Results published in US11596639B2, “Substituted indole Mcl-1 inhibitors” (Vanderbilt University, priority 2016, dated 2023).
Where two headings read alike, the source gives them in different places.

Key:
[1] = molecular target: Mcl-1 (Homo sapiens (Human), UniProt Q07820); assay: Fluorescence polarization anisotropy (FPA) competition assay, FITC-Bak or FITC-Bim BH3 peptide; format: binding; details: read-out: Ki for Inhibition of Mcl-1 by FPA assay
[2] = test system: H929 human cancer cell lines; assay: Cellular viability / proliferation (Cell TiterGlo, 72 h); format: cell-based
Procedure, shortened: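 Plating is at 1,000 cells/well in 10% FBS medium; after 24 h, compound is added as a 2-fold series starting at 50 μM with under 1% DMSO.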

[3] = Homo sapiens, NCI-H929, 72 h, read-out: GI50 on cellular proliferation of H929 human cancer cell lines, H929 cells, 72 h, Cell TiterGlo, 10% FBS

Chain of Mcl-1 (Q07820 172-327): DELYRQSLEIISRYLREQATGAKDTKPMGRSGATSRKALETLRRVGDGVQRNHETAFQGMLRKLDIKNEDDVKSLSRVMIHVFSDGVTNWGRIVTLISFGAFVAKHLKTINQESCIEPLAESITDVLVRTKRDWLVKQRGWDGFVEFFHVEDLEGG

Row | Compound | Ki [1] [nM] | GI50 [2, 3] [nM] | GI50 ([2]; read-out: GI50 on cellular proliferation of H929 human cancer cell lines, H929 cells, 72 h, Cell TiterGlo, 10% FBS) [nM] | GI50 ([2]; H929 cells, 72 h, Cell TiterGlo, 10% FBS, read-out: GI50 on cellular proliferation of H929 human cancer cell lines) [nM]
1 | Cc1cc(N2C[C@@H](C)n3c(c(CCCOc4cc(C)c(Cl)c(C)c4)c4ccc(Cl)c(-c5c(C)nn(C)c5C)c43)C2=O)c2c(c1)c(C(=O)O)cn2C [Example 159, (R)-7-(7-chloro-10-(3-(4-chloro-3,5-dimethylphenoxy)propyl)-4-methyl-1-oxo-6-(1,3,5-trimethyl-1H-pyrazol-4-yl)-3,4-dihydropyrazino[1,2-a]indol-2(1H)-yl)-1,5-dimethyl-1H-indole-3-carboxylic acid] | < 1 | 290 | – | –
2 | Cc1cc(OCCCc2c3n(c4c(-c5c(C)ncnc5C)c(Cl)ccc24)[C@H](C)CN(c2cccc4c(C(=O)O)cn(C)c24)C3=O)cc(C)c1Cl [Example 168, 7-[(4R)-7-chloro-10-[3-(4-chloro-3,5-dimethyl-phenoxy)propyl]-6-(4,6-dimethylpyrimidin-5-yl)-4-methyl-1-oxo-3,4-dihydropyrazino[1,2-a]indol-2-yl]-1-methyl-indole-3-carboxylic acid] | 1.1 | 1000 | – | –
3 | Cc1cc(OCCCc2c3n(c4c(-c5c(C)nn(C)c5C)c(Cl)ccc24)[C@H](C)CN(c2cccc4nn(C)c(C(=O)O)c24)C3=O)cc(C)c1Cl [Example 133, 4-[(4R)-7-chloro-10-[3-(4-chloro-3,5-dimethyl-phenoxy)propyl]-4-methyl-1-oxo-6-(1,3,5-trimethylpyrazol-4-yl)-3,4-dihydropyrazino[1,2-a]indol-2-yl]-2-methyl-indazole-3-carboxylic acid] | < 1 | – | 1400 | –
4 | Cc1cc(OCCCc2c3n(c4c(-c5c(C)nn(C)c5C)c(Cl)ccc24)[C@H](C)CN(c2nccc4cc(C(=O)O)ccc24)C3=O)cc(C)c1Cl [Example 264, 1-[(4R)-7-chloro-10-[3-(4-chloro-3,5-dimethyl-phenoxy)propyl]-4-methyl-1-oxo-6-(1,3,5-trimethylpyrazol-4-yl)-3,4-dihydropyrazino[1,2-a]indol-2-yl]isoquinoline-6-carboxylic acid] | < 1 | 560 | – | –
5 | Cc1cc(OCCCc2c3n(c4c(-c5c(C)nn(C)c5C)c(Cl)ccc24)CCCN(c2ccc4cnoc4c2)C3=O)cc(C)c1Cl [Example 64, 2-(1,2-benzoxazol-6-yl)-8-chloro-11-[3-(4-chloro-3,5-dimethyl-phenoxy)propyl]-7-(1,3,5-trimethylpyrazol-4-yl)-4,5-dihydro-3H-[1,4]diazepino[1,2-a]indol-1-one] | 4.8 | 5600 | – | –
6 | Cc1cc(OCCCc2c3n(c4c(-c5c(C)nn(C)c5C)c(Cl)ccc24)[C@H](C)CN(c2cn(C)c4ccc(C(=O)NN)cc24)C3=O)cc(C)c1Cl [Example 366, (R)-3-(7-Chloro-10-(3-(4-chloro-3,5-dimethylphenoxy)propyl)-4-methyl-1-oxo-6-(1,3,5-trimethyl-1H-pyrazol-4-yl)-3,4-dihydropyrazino[1,2-a]indol-2(1H)-yl)-1-methyl-1H-indole-5-carbohydrazide] | 2.9 | 440 | – | –
7 | Cc1cc(OCCCc2c3n(c4c(-c5c(C)nn(CC6CCN(C)C6)c5C)c(Cl)ccc24)[C@H](C)CN(c2cn(C)c4ccc(C(=O)O)cc24)C3=O)cc(C)c1Cl (stereo partly drawn) [Example 261, 3-((4R)-7-chloro-10-(3-(4-chloro-3,5-dimethylphenoxy)propyl)-6-(3,5-dimethyl-1-((1-methylpyrrolidin-3-yl)methyl)-1H-pyrazol-4-yl)-4-methyl-1-oxo-3,4-dihydropyrazino[1,2-a]indol-2(1H)-yl)-1-methyl-1H-indole-5-carboxylic acid] | < 1 | 530 | – | –
8 | Cc1cc(OCCCc2c3n(c4c(-c5c(C)ncnc5C)c(Cl)ccc24)CCCNC3=O)cc(C)c1Cl [Example 120, 8-Chloro-11-(3-(4-chloro-3,5-dimethylphenoxy)propyl)-7-(4,6-dimethylpyrimidin-5-yl)-2,3,4,5-tetrahydro-1H-[1,4]diazepino[1,2-a]indol-1-one] | 39 | 12000 | – | –
9 | Cc1cccnc1Cn1c(C(=O)O)cc2cccc(N3C[C@@H](C)n4c(c(CCCOc5cc(C)c(Cl)c(C)c5)c5ccc(Cl)c(-c6c(C)nn(C)c6C)c54)C3=O)c21 [Example 387, (R)-7-(7-Chloro-10-(3-(4-chloro-3,5-dimethylphenoxy)propyl)-4-methyl-1-oxo-6-(1,3,5-trimethyl-1H-pyrazol-4-yl)-3,4-dihydropyrazino[1,2-a]indol-2(1H)-yl)-1-((3-methylpyridin-2-yl)methyl)-1H-indole-2-carboxylic acid] | 2.1 | 3600 | – | –
10 | Cc1cc(OCCCc2c3n(c4c(-c5c(C)nn(C)c5C)c(Cl)ccc24)[C@H](C)CN(c2cccc4c(C(=O)O)cn(Cc5ccncc5)c24)C3=O)cc(C)c1Cl [Example 472, (R)-7-(7-Chloro-10-(3-(4-chloro-3,5-dimethylphenoxy)propyl)-4-methyl-1-oxo-6-(1,3,5-trimethyl-1H-pyrazol-4-yl)-3,4-dihydropyrazino[1,2-a]indol-2(1H)-yl)-1-(pyridin-4-ylmethyl)-1H-indole-3-carboxylic acid] | 1.2 | 1700 | – | –
11 | Cc1cc(OCCCc2c3n(c4c(-c5c(C)nn(C)c5C)c(Cl)ccc24)[C@H](C)CN(c2cc(OCc4ccccc4)cc4c2cc(C(=O)O)n4C)C3=O)cc(C)c1Cl [Example 310, (M, R)-6-(benzyloxy)-4-(7-chloro-10-(3-(4-chloro-3,5-dimethylphenoxy)propyl)-4-methyl-1-oxo-6-(1,3,5-trimethyl-1H-pyrazol-4-yl)-3,4-dihydropyrazino[1,2-a]indol-2(1H)-yl)-1-methyl-1H-indole-2-carboxylic acid] | 1.5 | – | – | 8900
12 | Cc1cc(OCCCc2c3n(c4c(-c5c(C)nn(C)c5C)c(Cl)ccc24)[C@H](C)CN(c2cn(C)c4cc(C(=O)O)ccc24)C3=O)cc(C)c1Cl [Example 88, (R)-3-(7-Chloro-10-(3-(4-chloro-3,5-dimethylphenoxy)propyl)-4-methyl-1-oxo-6-(1,3,5-trimethyl-1H-pyrazol-4-yl)-3,4-dihydropyrazino[1,2-a]indol-2(1H)-yl)-1-methyl-1H-indole-6-carboxylic acid] | < 1 | 290 | – | –
13 | Cc1cc(OCCCc2c3n(c4c(-c5c(C)nn(C)c5C)c(Cl)ccc24)[C@H](C)CN(c2cn(C)c4ccc(-c5nnn[nH]5)cc24)C3=O)cc(C)c1Cl [Example 251, (R)-7-Chloro-10-(3-(4-chloro-3,5-dimethylphenoxy)propyl)-4-methyl-2-(1-methyl-5-(1H-tetrazol-5-yl)-1H-indol-3-yl)-6-(1,3,5-trimethyl-1H-pyrazol-4-yl)-3,4-dihydropyrazino[1,2-a]indol-1(2H)-one] | < 1 | 250 | – | –
14 | Cc1cc(OCCCc2c3n(c4c(-c5c(C)nn(C)c5C)c(Cl)ccc24)[C@H](C)CN(c2cn(CCN4CCOCC4)c4cc(C(N)=O)ccc24)C3=O)cc(C)c1Cl [Example 402, (R)-3-(7-Chloro-10-(3-(4-chloro-3,5-dimethylphenoxy)propyl)-4-methyl-1-oxo-6-(1,3,5-trimethyl-1H-pyrazol-4-yl)-3,4-dihydropyrazino[1,2-a]indol-2(1H)-yl)-1-(2-morpholinoethyl)-1H-indole-6-carboxamide] | 4.9 | 1100 | – | –
